Legend:
[1] = system: STING (IFN-β in hPBMC); assay: hPBMC cytokine functional assay (IFN-β decrease after Baculovirus stimulation); assay type: cell-based; details: Homo sapiens, Baculovirus MOI 40, 24 hours, read-out: hPBMC_IC50
Experimental: The inhibition of STING by compounds could be measured by the decrease of IFN-β in hPBMC, which is stimulated by a double stranded DNA virus Baculoviurs (Purchased from Genescript, pCMV-Dest Vector virus generation P2 BV stock virus, Sf-900 II medium with 5% FBS, Lot C9835DK230-2/P4DL001). Frozen hPBMC cells (purchased from Stemcell Technologies, cat number is 70025, Lot 191070803C) were thawed at 37° C. water bath, then cells were re-suspended in 50 ml tube using 20 ml Cell culture medium, and then centrifuged for 5 min at 2000 rpm before the supernatant was removed carefully. The cells were re-suspended in culture medium (RPMI-1640 with 1.5 g/L NaHCO3, 4.5 g/L glucose, 10 mM HEPES and 1 mM Na-pyruvate, 10% HI-FBS); 65 μL of the cell suspension was dispensed into 384 well plate (70K cells/well) by Multidrop Combi with at least 3 hours incubation at 37° C., 5% CO2 cell incubator.
Then 4 μL of compound solution per well (final 0.5% DMSO) was transferred by Agilent Bravo followed by infection with 11 μL of Baculovirus at a final MOI of 40. The level of IFN-β secreted in the supernatant of hPBMC was determined after 24 hours of incubation at 37° C. cell incubator by human IFN-β HTRF assay (Cisbio, cat: 62HIFNBPEH) following the manufacture's instruction. CellTiter-Glo kit (Promega, cat: G7573) was applied for the cell viability evaluation using Envision.

[2] = target: human stimulator of interferon genes (STING) (139-379) (Homo sapiens (Human), UniProt Q86WV6); assay: Microliter plate-based TR-FRET competition-binding assay for binders of STING; details: Alexa488 probe, read-out: FRET_IC50
Chain of human stimulator of interferon genes (STING) (139-379) (Q86WV6 139-379): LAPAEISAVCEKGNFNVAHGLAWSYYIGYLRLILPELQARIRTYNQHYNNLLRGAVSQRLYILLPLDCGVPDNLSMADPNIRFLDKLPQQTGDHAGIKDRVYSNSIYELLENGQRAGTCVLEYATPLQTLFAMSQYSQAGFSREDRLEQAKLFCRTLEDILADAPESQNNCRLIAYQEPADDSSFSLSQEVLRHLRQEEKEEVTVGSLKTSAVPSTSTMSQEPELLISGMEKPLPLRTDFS
Experimental: This is the competition-binding assay to test the compounds' potency to the C-terminal Domain (CTD) and ligand-binding domain of human stimulator of interferon genes (STING). STING (139-379, Q86WV6, http://www.uniprot.org/uniprot) recombinant protein (in 20 mM Tris, 150 mM NaCl, pH 8.0, and expression in Escherichia coli (E. coli) BL21 (DE3)) with a C-terminal flag-tag was employed for the assay. When Alexa-488 labeled active site probe (refer to patent WO2017/175156 A1) bounds to STING (139-379), it accepts the 485 nm emission from Tb-M2-Flag-STING and results in an increase in fluorescence at 520 nm. Compounds that compete for the probe-binding site will reduce 520 nm signal. The assay was run in proxiplate-384 plus (PerkinElmer, cat: 60150300) containing of 2.5 nM STING, 2.5 nM M2-Tb (Cisbio, 61FG2TLA, Lot: 17 A) and 250 nM Alexa488 probe. Plates were centrifuged for 1 min at 1000 rpm, incubated for 30 min at room temperature, and then measured the dual fluorescence emission at 520 nm/485 nM following 320 nm laser excitation on an Envision plate reader (Perkin-Elmer). The compounds' effect on the STING binding is detected by measuring ratiometric fluorescence from time-resolved FRET. The percentage of inhibition of at each compound concentration is calculated on the basis of their changes of TR-FRET efficiency relative to the change of TR-FRET caused by positive control 2′3′cGAMP (Sigma, cat: SML1229).

Cn1nc2cccc3c2c1CCCNC(=O)[C@@H]1C[C@@H](CN1c1ncnc2c1cnn2-c1ccc(F)cc1F)Oc1cccc-3c1 [Example 1, (8S,11S)-10-[1-(2,4-difluorophenyl)pyrazolo[3,4-d]pyrimidin-4-yl]-18-methyl-7-oxa-10,13,18,19-tetrazapentacyclo[15.6.1.1^2,6.1^8,11.0^20,24]hexacosa-1(23),2(26),3,5,17(24),19,21-heptaen-12-one]
IC50 [1]: 486 nM
IC50 [2]: 0.8 nM

CN1CCCc2c3c(cccc3nn2C)-c2cccc(c2)O[C@H]2C[C@@H](C1=O)N(c1ncnc3c1cnn3-c1ccc(F)cc1F)C2 [Example 2, (8S,11S)-10-[1-(2,4-difluorophenyl)pyrazolo[3,4-d]pyrimidin-4-yl]-13,18-dimethyl-7-oxa-10,13,18,19-tetrazapentacyclo[15.6.1.1^2,6.1^8,11.0^20,24]hexacosa-1(23),2(26),3,5,17(24),19,21-heptaen-12-one]
IC50 [1]: 594 nM
IC50 [2]: 2.7 nM

CN1CCCc2c3c(cccc3nn2C)-c2cccc(n2)N[C@H]2C[C@@H](C1=O)N(c1ncnc3c1cnn3-c1ccc(F)cc1F)C2 [Example 3, (8S,11S)-10-[1-(2,4-difluorophenyl)pyrazolo[3,4-d]pyrimidin-4-yl]-13,18-dimethyl-7,10,13,18,19,26-hexazapentacyclo[15.6.1.1^2,6.1^8,11.0^20,24]hexacosa-1(23),2(26),3,5,17(24),19,21-heptaen-12-one]
IC50 [1]: 288 nM
IC50 [2]: 0.6 nM

CN1CCCc2c3c(cccc3nn2C)-c2ccnc(n2)N[C@H]2C[C@@H](C1=O)N(c1nccn3c(-c4ccc(F)cc4F)ncc13)C2 [Example 5, (8S,11S)-10-[3-(2,4-difluorophenyl)imidazo[1,5-a]pyrazin-8-yl]-13,18-dimethyl-5,7,10,13,18,19,26-heptazapentacyclo[15.6.1.1^2,6.1^8,11.0^20,24]hexacosa-1(23),2,4,6(26),17(24),19,21-heptaen-12-one]
IC50 [1]: 308 nM
IC50 [2]: 3.8 nM

COc1cc2nc(c1)-c1cccc3nn(C)c(c13)CCCN(C)C(=O)[C@@H]1C[C@@H](CN1c1ncnc3c1cnn3-c1ccc(F)cc1F)N2 [Example 13, (8S,11S)-10-[1-(2,4-difluorophenyl)pyrazolo[3,4-d]pyrimidin-4-yl]-4-methoxy-13,18-dimethyl-7,10,13,18,19,26-hexazapentacyclo[15.6.1.1^2,6.1^8,11.0^20,24]hexacosa-1(23),2,4,6(26),17(24),19,21-heptaen-12-one]
IC50 [1]: 224 nM
IC50 [2]: 4.7 nM

COc1cc2nc(c1)-c1cccc3nn(C)c(c13)CCCN(C)C(=O)[C@@H]1C[C@@H](CN1c1ncnc3c1cnn3-c1ccc(F)cc1OC)N2 [Example 14, (8S,11S)-10-[1-(4-fluoro-2-methoxy-phenyl)pyrazolo[3,4-d]pyrimidin-4-yl]-4-methoxy-13,18-dimethyl-7,10,13,18,19,26-hexazapentacyclo[15.6.1.1^2,6.1^8,11.0^20,24]hexacosa-1(23),2,4,6(26),17(24),19,21-heptaen-12-one]
IC50 [1]: 255 nM
IC50 [2]: 4.8 nM

Cn1nc2cccc3c2c1CCCN(CC1CC1)C(=O)[C@@H]1C[C@@H](CN1c1ncnc2c1cnn2-c1ccc(F)cc1F)Oc1cccc-3c1 [Example 15, (8S,11S)-13-(cyclopropylmethyl)-10-[1-(2,4-difluorophenyl)pyrazolo[3,4-d]pyrimidin-4-yl]-18-methyl-7-oxa-10,13,18,19-tetrazapentacyclo[15.6.1.1^2,6.1^8,11.0^20,24]hexacosa-1(23),2(26),3,5,17(24),19,21-heptaen-12-one]
IC50 [1]: 140 nM
IC50 [2]: 1.6 nM

Cn1nc2cccc3c2c1CCCN(Cc1cscn1)C(=O)[C@@H]1C[C@@H](CN1c1ncnc2c1cnn2-c1ccc(F)cc1F)Oc1cccc-3c1 [Example 17, (8S,11S)-10-[1-(2,4-difluorophenyl)pyrazolo[3,4-d]pyrimidin-4-yl]-18-methyl-13-(thiazol-4-ylmethyl)-7-oxa-10,13,18,19-tetrazapentacyclo[15.6.1.1^2,6.1^8,11.0^20,24]hexacosa-1(23),2(26),3,5,17(24),19,21-heptaen-12-one]
IC50 [2]: 2.2 nM

C=CCN1CCCc2c3c(cccc3nn2C)-c2cccc(c2)O[C@H]2C[C@@H](C1=O)N(c1ncnc3c1cnn3-c1ccc(F)cc1F)C2 [Example 20, (8S,11S)-13-allyl-10-[1-(2,4-difluorophenyl)pyrazolo[3,4-d]pyrimidin-4-yl]-18-methyl-7-oxa-10,13,18,19-tetrazapentacyclo[15.6.1.1^2,6.1^8,11.0^20,24]hexacosa-1(23),2(26),3,5,17(24),19,21-heptaen-12-one]
IC50 [1]: 346 nM
IC50 [2]: 1.9 nM

COCCN1CCCc2c3c(cccc3nn2C)-c2cccc(c2)O[C@H]2C[C@@H](C1=O)N(c1ncnc3c1cnn3-c1ccc(F)cc1F)C2 [Example 21, (8S,11S)-10-[1-(2,4-difluorophenyl)pyrazolo[3,4-d]pyrimidin-4-yl]-13-(2-methoxyethyl)-18-methyl-7-oxa-10,13,18,19-tetrazapentacyclo[15.6.1.1^2,6.1^8,11.0^20,24]hexacosa-1(23),2(26),3,5,17(24),19,21-heptaen-12-one]
IC50 [1]: 380 nM
IC50 [2]: 2 nM

Cn1nc2cccc3c2c1CCCN(CCN1CCOCC1)C(=O)[C@@H]1C[C@@H](CN1c1ncnc2c1cnn2-c1ccc(F)cc1F)Oc1cccc-3c1 [Example 23, (8S,11S)-10-[1-(2,4-difluorophenyl)pyrazolo[3,4-d]pyrimidin-4-yl]-18-methyl-13-(2-morpholinoethyl)-7-oxa-10,13,18,19-tetrazapentacyclo[15.6.1.1^2,6.1^8,11.0^20,24]hexacosa-1(23),2(26),3,5,17(24),19,21-heptaen-12-one]
IC50 [1]: 279 nM
IC50 [2]: 1.6 nM

Cn1nc2cc(F)cc3c2c1CCCN(CCN1CCOCC1)C(=O)[C@@H]1C[C@@H](CN1c1ncnc2c1cnn2-c1ccc(F)cc1F)Oc1cccc-3c1 [Example 25, (8S,11S)-10-[1-(2,4-difluorophenyl)pyrazolo[3,4-d]pyrimidin-4-yl]-22-fluoro-18-methyl-13-(2-morpholinoethyl)-7-oxa-10,13,18,19-tetrazapentacyclo[15.6.1.1^2,6.1^8,11.0^20,24]hexacosa-1(23),2(26),3,5,17(24),19,21-heptaen-12-one]
IC50 [1]: 549 nM
IC50 [2]: 18.4 nM

Cn1nc2cccc3c2c1CCCN(CCCO)C(=O)[C@@H]1C[C@@H](CN1c1ncnc2c1cnn2-c1ccc(F)cc1F)Oc1cccc-3c1 [Example 26, (8S,11S)-10-[1-(2,4-difluorophenyl)pyrazolo[3,4-d]pyrimidin-4-yl]-13-(3-hydroxypropyl)-18-methyl-7-oxa-10,13,18,19-tetrazapentacyclo[15.6.1.1^2,6.1^8,11.0^20,24]hexacosa-1(23),2(26),3,5,17(24),19,21-heptaen-12-one]
IC50 [1]: 103 nM
IC50 [2]: 2.2 nM

Cn1nc2cccc3c2c1CCCN(CCCn1cncn1)C(=O)[C@@H]1C[C@@H](CN1c1ncnc2c1cnn2-c1ccc(F)cc1F)Oc1cccc-3c1 [Example 37, (8S,11S)-10-[1-(2,4-difluorophenyl)pyrazolo[3,4-d]pyrimidin-4-yl]-18-methyl-13-[3-(1,2,4-triazol-1-yl)propyl]-7-oxa-10,13,18,19-tetrazapentacyclo[15.6.1.1^2,6.1^8,11.0^20,24]hexacosa-1(23),2(26),3,5,17(24),19,21-heptaen-12-one]
IC50 [2]: 1.5 nM

COCCOCCCN1CCCc2c3c(cccc3nn2C)-c2cccc(c2)O[C@H]2C[C@@H](C1=O)N(c1ncnc3c1cnn3-c1ccc(F)cc1F)C2 [Example 39, (8S,11S)-10-[1-(2,4-difluorophenyl)pyrazolo[3,4-d]pyrimidin-4-yl]-13-[3-(2-methoxyethoxy)propyl]-18-methyl-7-oxa-10,13,18,19-tetrazapentacyclo[15.6.1.1^2,6.1^8,11.0^20,24]hexacosa-1(23),2(26),3,5,17(24),19,21-heptaen-12-one]
IC50 [2]: 5.5 nM

— patent publication US20260070927A1, “INDAZOLE MACROCYCLES FOR THE TREATMENT OF AUTOIMMUNE DISEASE” (Hoffmann-La Roche Inc., priority 2022, published 2026)
